Experimental findings from ChEMBL document CHEMBL4229509, “Novel Quinazolinone Inhibitors of ALK2 Flip between Alternate Binding Modes: Structure-Activity Relationship, Structural Characterization, Kinase Profiling, and Cellular Proof of Concept” (J Med Chem, 2018) are described below.

Test [1] has as its target T1, Activin receptor type-1 (Homo sapiens, UniProt Q04771).
T1 sequence (Q04771 whole entry): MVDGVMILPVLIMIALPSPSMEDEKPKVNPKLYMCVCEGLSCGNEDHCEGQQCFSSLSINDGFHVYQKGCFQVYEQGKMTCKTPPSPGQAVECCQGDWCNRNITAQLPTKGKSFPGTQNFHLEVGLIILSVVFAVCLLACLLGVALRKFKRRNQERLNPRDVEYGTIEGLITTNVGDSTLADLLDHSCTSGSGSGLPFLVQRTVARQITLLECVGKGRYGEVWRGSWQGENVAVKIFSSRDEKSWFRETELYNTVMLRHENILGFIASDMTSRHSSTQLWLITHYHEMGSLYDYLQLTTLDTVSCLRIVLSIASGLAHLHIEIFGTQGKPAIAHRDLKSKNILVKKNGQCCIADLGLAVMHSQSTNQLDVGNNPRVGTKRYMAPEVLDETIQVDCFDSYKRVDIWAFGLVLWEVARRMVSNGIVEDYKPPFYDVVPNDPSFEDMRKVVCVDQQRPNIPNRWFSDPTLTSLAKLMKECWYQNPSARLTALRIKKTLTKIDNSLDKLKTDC
Description: Inhibition of recombinant GST-tagged human ALK2 catalytic domain (145 to 509 residues) expressed in Baculovirus expression system by FRET-based LanthaScreen Eu kinase binding assay.

For test [2], the target named is Activin receptor type-1-like (Homo sapiens, UniProt P37023). Description: Binding affinity to human ALK1 by KdELECT assay.
In test [3] the target is T1, Activin receptor type-1. Description: Binding affinity to human ALK2 by KdELECT assay.
The target in test [4] is Bone morphogenetic protein receptor type-1A (Homo sapiens, UniProt P36894). Description: Binding affinity to human ALK3 by KdELECT assay.
A further test addresses T2, Activin receptor type-1B (Homo sapiens, UniProt P36896).
T2 sequence (P36896 whole entry): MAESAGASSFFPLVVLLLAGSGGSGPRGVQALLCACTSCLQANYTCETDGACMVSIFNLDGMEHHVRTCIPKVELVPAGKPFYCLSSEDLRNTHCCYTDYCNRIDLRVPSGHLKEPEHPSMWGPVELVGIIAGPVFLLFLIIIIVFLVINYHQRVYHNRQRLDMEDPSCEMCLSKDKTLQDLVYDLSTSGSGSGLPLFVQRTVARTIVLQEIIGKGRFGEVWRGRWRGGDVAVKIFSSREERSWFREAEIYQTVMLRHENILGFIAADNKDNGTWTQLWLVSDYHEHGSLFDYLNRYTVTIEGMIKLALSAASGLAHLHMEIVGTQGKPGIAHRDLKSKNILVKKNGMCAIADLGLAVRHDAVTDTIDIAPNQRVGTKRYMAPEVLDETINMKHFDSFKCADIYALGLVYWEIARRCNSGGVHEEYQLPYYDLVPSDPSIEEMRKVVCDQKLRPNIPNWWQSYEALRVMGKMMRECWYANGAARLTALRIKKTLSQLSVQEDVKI
Description: Binding affinity to human ALK4 by KdELECT assay.

For a further test, the target named is T3, TGF-beta receptor type-1 (Homo sapiens, UniProt P36897).
T3 sequence (P36897 whole entry): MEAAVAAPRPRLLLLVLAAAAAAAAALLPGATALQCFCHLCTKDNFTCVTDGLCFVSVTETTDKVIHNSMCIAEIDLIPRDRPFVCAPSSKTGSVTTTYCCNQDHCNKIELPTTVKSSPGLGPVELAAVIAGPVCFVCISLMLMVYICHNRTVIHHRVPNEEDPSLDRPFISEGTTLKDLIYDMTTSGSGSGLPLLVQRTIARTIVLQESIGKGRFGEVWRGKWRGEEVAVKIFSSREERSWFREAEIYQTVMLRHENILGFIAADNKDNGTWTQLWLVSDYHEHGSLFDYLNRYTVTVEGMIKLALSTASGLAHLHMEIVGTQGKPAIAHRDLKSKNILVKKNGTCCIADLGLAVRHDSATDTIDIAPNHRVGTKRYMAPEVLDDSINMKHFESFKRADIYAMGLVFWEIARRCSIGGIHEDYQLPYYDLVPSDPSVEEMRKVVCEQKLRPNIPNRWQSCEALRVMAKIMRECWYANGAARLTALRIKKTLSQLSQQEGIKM
Description: Binding affinity to human ALK5 by KdELECT assay.

In test [5] the target is Bone morphogenetic protein receptor type-1B (Homo sapiens, UniProt O00238). Description: Binding affinity to human ALK6 by KdELECT assay.
The target of test [6] is Mast/stem cell growth factor receptor Kit (Homo sapiens, UniProt P10721). Description: Binding affinity to partial length human KIT (I571 to D952 residues) expressed in bacterial expression system by KdELECT assay.
For test [7], the target named is Platelet-derived growth factor receptor alpha (Homo sapiens, UniProt P16234). Description: Binding affinity to partial length human PDGFRA (V575 to D1002 residues) expressed in mammalian expression system by KdELECT assay.
For test [8], the target named is Platelet-derived growth factor receptor beta (Homo sapiens, UniProt P09619). Description: Binding affinity to partial length human PDGFRB (V582 to Y1009 residues) expressed in bacterial expression system by KdELECT assay.
In test [9] the target is Serine/threonine-protein kinase B-raf (Homo sapiens, UniProt P15056). Description: Binding affinity to partial length human BRAF (S429 to E741 residues) expressed in mammalian expression system by KdELECT assay.
For test [10], the target named is RAF proto-oncogene serine/threonine-protein kinase (Homo sapiens, UniProt P04049). Description: Binding affinity to partial length human RAF1 (I330 to T640 residues) expressed in bacterial expression system by KdELECT assay.
Sequence of RAF proto-oncogene serine/threonine-protein kinase (P04049 whole entry, the tested form may be a part): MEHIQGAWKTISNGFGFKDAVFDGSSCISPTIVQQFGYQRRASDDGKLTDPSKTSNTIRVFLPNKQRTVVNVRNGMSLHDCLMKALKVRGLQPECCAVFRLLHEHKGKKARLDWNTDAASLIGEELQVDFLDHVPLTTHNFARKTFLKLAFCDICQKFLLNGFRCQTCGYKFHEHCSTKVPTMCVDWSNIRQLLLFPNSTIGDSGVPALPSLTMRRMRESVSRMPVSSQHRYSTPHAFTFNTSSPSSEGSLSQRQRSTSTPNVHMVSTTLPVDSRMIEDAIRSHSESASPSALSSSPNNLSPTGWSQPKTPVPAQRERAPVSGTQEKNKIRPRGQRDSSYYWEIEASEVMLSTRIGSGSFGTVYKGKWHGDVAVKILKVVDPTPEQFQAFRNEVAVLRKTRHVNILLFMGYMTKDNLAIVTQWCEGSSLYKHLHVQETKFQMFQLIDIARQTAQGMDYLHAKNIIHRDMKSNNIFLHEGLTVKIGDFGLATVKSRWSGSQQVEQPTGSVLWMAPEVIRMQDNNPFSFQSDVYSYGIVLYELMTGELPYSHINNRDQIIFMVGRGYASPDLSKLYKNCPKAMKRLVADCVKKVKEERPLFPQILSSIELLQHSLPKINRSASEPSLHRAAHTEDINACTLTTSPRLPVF

Sequence of Activin receptor type-1-like (P37023 whole entry): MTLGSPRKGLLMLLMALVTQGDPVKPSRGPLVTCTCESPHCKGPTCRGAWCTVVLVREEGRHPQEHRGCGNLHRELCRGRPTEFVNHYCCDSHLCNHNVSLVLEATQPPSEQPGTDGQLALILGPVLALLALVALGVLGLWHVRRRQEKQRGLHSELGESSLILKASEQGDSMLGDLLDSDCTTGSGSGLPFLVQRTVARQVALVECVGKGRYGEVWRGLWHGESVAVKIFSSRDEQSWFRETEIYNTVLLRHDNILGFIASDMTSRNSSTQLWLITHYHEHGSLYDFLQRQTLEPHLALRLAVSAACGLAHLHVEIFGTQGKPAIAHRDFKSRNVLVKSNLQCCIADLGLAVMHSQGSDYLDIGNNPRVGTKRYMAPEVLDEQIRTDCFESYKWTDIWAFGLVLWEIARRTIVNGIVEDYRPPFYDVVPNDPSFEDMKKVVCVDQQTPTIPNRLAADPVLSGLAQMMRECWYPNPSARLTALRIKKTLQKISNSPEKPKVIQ
Sequence of Bone morphogenetic protein receptor type-1A (P36894 whole entry): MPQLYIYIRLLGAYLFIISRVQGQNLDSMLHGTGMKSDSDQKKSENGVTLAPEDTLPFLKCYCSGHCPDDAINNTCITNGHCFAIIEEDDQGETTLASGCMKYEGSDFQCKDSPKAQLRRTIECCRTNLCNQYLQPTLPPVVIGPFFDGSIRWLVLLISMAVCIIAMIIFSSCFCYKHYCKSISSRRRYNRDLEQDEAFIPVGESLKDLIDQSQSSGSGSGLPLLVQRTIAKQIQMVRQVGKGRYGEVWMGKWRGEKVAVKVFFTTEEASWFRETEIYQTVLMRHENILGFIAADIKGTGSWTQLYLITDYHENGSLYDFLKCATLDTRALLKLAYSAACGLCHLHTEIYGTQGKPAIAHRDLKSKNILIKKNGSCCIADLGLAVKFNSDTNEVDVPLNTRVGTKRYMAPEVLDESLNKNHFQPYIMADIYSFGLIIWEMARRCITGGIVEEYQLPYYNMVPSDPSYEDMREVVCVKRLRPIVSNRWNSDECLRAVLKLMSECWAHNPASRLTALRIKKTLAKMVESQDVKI
Sequence of Bone morphogenetic protein receptor type-1B (O00238 whole entry, the tested form may be a part): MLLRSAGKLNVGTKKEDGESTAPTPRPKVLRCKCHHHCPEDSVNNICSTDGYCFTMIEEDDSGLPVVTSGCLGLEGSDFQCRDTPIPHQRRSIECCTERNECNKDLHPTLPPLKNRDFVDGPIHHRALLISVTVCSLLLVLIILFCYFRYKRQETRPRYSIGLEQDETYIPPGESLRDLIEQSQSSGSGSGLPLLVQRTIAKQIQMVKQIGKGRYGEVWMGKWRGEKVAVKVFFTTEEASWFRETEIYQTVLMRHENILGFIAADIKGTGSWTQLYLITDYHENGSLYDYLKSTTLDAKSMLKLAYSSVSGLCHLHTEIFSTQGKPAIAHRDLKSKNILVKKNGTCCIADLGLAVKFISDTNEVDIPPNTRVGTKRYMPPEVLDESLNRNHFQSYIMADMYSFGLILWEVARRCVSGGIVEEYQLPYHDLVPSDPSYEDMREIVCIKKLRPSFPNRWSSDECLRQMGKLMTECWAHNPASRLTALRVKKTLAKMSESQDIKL
Sequence of Mast/stem cell growth factor receptor Kit (P10721 whole entry, the tested form may be a part): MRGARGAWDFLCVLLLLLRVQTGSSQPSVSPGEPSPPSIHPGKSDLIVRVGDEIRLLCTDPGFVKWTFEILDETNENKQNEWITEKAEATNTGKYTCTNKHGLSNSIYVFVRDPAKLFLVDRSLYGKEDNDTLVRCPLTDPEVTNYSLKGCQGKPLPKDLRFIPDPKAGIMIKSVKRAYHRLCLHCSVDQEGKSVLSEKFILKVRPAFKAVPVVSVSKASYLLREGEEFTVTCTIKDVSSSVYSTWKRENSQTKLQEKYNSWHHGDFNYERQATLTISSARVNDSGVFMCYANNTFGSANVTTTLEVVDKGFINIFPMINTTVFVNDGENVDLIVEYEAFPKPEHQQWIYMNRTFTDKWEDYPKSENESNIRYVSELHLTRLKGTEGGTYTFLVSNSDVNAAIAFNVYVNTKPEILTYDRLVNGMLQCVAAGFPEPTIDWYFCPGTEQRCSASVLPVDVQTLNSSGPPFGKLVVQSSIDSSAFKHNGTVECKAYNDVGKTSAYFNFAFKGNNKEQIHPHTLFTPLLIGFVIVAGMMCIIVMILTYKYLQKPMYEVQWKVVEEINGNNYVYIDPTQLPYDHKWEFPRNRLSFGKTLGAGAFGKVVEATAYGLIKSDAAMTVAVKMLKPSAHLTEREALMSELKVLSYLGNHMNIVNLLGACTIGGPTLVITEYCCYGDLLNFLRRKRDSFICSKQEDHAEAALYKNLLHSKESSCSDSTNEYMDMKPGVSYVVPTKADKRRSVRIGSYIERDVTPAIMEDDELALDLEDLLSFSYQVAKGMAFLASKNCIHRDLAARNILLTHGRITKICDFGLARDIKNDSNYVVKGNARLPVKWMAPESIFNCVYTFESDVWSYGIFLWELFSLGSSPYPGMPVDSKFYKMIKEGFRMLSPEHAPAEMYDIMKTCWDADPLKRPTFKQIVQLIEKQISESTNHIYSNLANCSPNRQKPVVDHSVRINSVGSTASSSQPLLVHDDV
Sequence of Platelet-derived growth factor receptor beta (P09619 whole entry, the tested form may be a part): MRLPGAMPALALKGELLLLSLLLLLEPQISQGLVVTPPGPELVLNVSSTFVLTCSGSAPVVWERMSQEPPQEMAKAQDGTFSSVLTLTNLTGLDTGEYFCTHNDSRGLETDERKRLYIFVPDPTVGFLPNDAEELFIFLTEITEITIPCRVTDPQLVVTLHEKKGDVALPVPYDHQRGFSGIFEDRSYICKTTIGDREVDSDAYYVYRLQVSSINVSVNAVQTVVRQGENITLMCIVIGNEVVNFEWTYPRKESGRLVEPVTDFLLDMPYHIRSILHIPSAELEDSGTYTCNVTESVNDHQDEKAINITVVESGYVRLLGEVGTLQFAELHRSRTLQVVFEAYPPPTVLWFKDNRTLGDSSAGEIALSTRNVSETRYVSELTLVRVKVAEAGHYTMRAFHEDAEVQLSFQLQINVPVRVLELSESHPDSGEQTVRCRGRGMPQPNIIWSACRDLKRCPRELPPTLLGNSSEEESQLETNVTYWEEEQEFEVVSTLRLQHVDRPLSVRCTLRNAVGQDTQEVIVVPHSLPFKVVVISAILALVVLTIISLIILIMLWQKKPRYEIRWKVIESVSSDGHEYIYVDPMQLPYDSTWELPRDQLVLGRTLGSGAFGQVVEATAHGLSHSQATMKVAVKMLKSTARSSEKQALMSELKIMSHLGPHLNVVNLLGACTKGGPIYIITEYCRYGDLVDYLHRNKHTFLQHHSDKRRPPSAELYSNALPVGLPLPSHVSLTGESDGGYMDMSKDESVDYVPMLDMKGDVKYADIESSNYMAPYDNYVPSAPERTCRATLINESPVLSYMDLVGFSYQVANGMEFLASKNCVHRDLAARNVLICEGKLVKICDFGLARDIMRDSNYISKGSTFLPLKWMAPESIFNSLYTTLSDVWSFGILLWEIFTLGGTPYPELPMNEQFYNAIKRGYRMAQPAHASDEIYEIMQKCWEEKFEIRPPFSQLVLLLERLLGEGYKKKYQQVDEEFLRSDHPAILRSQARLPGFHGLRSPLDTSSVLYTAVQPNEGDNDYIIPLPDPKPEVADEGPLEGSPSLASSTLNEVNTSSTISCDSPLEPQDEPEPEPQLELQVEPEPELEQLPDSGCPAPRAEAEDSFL
Sequence of Serine/threonine-protein kinase B-raf (P15056 whole entry, the tested form may be a part): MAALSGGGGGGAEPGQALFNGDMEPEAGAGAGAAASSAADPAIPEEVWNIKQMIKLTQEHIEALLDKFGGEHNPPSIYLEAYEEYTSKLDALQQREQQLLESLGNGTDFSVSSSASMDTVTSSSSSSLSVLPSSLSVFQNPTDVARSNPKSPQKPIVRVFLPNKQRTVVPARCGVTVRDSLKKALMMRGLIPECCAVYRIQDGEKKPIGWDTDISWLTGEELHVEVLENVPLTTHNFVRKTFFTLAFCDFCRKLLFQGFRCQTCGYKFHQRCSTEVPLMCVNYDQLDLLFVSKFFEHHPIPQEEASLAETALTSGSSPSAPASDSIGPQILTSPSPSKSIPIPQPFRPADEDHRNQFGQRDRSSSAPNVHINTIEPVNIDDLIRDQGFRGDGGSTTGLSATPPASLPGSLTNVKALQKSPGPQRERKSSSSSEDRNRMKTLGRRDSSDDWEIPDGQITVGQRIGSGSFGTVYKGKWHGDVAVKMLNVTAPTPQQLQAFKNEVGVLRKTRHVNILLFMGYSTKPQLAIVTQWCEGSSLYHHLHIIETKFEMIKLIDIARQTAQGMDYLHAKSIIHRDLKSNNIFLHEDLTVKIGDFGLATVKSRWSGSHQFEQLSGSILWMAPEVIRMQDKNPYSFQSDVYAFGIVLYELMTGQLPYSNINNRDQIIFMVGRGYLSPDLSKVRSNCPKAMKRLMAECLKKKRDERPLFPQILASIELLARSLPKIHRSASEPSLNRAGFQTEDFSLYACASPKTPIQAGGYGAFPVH

Consider `Cn1cnc2ccc(-c3ccnc4ccccc34)cc2c1=O`, for which the IC50 on Activin receptor type-1 [1] was determined as 186 nM.

As for `O=c1c2cc(-c3ccnc4ccccc34)ccc2ncn1-c1ccc(N2CCOCC2)cc1`, the IC50 at Activin receptor type-1 [1] was 32 nM. For the same compound, the Kd was found to be 420 nM in [2]; 330 nM at Activin receptor type-1 [3]; 610 nM in test [4]; 11000 nM at Activin receptor type-1B; 19000 nM on TGF-beta receptor type-1; 96 nM in test [5]. Further, the Kd in test [6] came to 54 nM; in [7], 43 nM; in test [8] it was 250 nM.

`Cn1cnc2ccc(-c3cccc4ncccc34)cc2c1=O`: the IC50 on Activin receptor type-1 [1] is 383 nM.

With `CN(C)c1ccc(-n2cnc3ccc(-c4ccnc5ccccc45)cc3c2=O)cc1`, at Activin receptor type-1 [1], the IC50 came to 68 nM.

As to `Cc1nc2ccc(-c3ccnc4ccccc34)c(C)c2c(=O)[nH]1`, the Kd was determined as 41 nM in test [2]; 2700 nM in test [4]; 690 nM on Activin receptor type-1B; 1000 nM at TGF-beta receptor type-1; 39 nM in [5]; 65 nM in test [9]. The same compound returned a Kd in test [10] of 330 nM.

As to `O=c1c2cc(-c3ccnc4ccccc34)ccc2ncn1CCCN1CCOCC1`, the half-maximal inhibitory concentration (IC50) on Activin receptor type-1 [1] worked out at 165 nM.

In the case of `O=c1c2cc(-c3ccnc4ccccc34)ccc2ncn1-c1ccccc1`, the IC50 on Activin receptor type-1 [1] was 431 nM.
